Test results reported in ChEMBL document CHEMBL5537204, “Identifying Marine-Derived Tanzawaic Acid Derivatives as Novel Inhibitors against Osteoclastogenesis and Osteoporosis via Downregulation of NF-κB and NFATc1 Activation” (J Med Chem, 2024).
The source made the active and inactive calls. The rule behind the calls is not given here.

What was measured:
RAW264.7 [1] = assay: Inhibition of LPS-induced NF-kappaB activation in mouse RAW264.7 cells expressing luciferase gene preincubated with compound for 30 mins followed by LPS-induction and measured after 6 hrs by luciferase reporter gene assay; type: cell-based; settings: dose 20.0 µM, time 6.5 hrs
RAW264.7 [2] = assay: Inhibition of LPS-induced NF-kappaB activation in mouse RAW264.7 cells expressing luciferase gene at 20 uM preincubated with compound for 30 mins followed by LPS-induction and measured after 6 hrs by luciferase reporter gene assay; type: cell-based; settings: time 6.5 hrs
BMMC = assay: Anti-osteoporosis activity in C57BL/6 mouse BMMC cells assessed as reduction in RANKL-induced osteoclasts formation at 10 uM incubated for 4 days in presence of MCSF by TRAP staining based assay; type: functional; settings: time 4.0 day

Structure (SMILES)	inhibition (RAW264.7 [1])	inhibition (RAW264.7 [2])	Activity (BMMC)
C[C@@H]1C[C@@](C)(O)C[C@@H]2C=C[C@@](C)(/C=C/C=C/C(=O)O)C(=O)[C@@H]12	Dose-Dependent Effect	–	–
C[C@@H]1[C@@H](O)[C@H](O)[C@@H]2C[C@H](CO)C[C@H](C)[C@H]2[C@]1(O)/C=C/C=C/C(=O)O	Dose-Dependent Effect	–	–
Cc1ccc2c(c1/C=C/C=C/C(=O)O)[C@H](C)C[C@@](C)(O)C2	Dose-Dependent Effect	Active	–
Cc1ccc2c(c1/C=C/C=C/C(=O)O)[C@H](C)C[C@H](C)[C@H]2O	–	Active	–
CC1=CC(=O)[C@H]2C[C@@H](C)C[C@@H](C)[C@@H]2[C@]1(O)/C=C/C=C/C(=O)O	Dose-Dependent Effect	–	–
Cc1ccc2c(c1/C=C/C=C/C(=O)O)[C@H](C)C[C@H](C)[C@@H]2O	–	Active	–
CC1=C(/C=C/C=C/C(=O)O)[C@H]2[C@H](C=C1)C[C@H](C)C[C@@H]2C	Dose-Dependent Effect	–	–
C[C@@H]1Cc2ccc(CO)c(/C=C/C=C/C(=O)O)c2[C@H](C)C1	–	Active	–
Cc1ccc2c(c1/C=C/C=C/C(=O)O)[C@H](C)C[C@@](C)(O)[C@H]2O	Dose-Dependent Effect	Active	Active
CO[C@H]1C=C(C)[C@H](/C=C/C=C/C(=O)O)[C@@H]2[C@@H]1C[C@@H](CO)C[C@H]2C	Dose-Dependent Effect	–	–
Cc1ccc2c(c1/C=C/C=C/C(=O)O)[C@H](C)C[C@H](C)C2	–	Active	–
C[C@@H]1C[C@@H]2[C@@H](C(=O)O)[C@H](C)[C@](O)(/C=C/C=C/C(=O)O)[C@H]2[C@H](C)C1	Dose-Dependent Effect	–	–
C[C@@H]1[C@@H](Cl)[C@H](O)[C@@H]2C[C@@](C)(O)C[C@H](C)[C@H]2[C@]1(O)/C=C/C=C/C(=O)O	Dose-Dependent Effect	–	–
C[C@@H]1C[C@@](C)(O)C[C@@H]2C=C[C@H](C)[C@](O)(/C=C/C=C/C(=O)O)[C@@H]12	Dose-Dependent Effect	–	Active
